Values joined by “and” are separate entries in the source; they are usually repeats but may differ in a detail not shown here. Equal entries are not always repeated. Records with an inconclusive call do not appear.

The subject of this assay is nude mice, HT29 intrarenal xenograft, tumor weight T/C. As to the kind of experiment: NCI In Vivo Anticancer Drug Screen. Data for tumor model HT29;CX-1 Human Adenocarcinoma (MER+) (intrarenal inoculation) in NU/NU Swiss (nude) mice. Particulars: endpoint: mean tumor weight change, higher = larger tumour. An outline of the steps: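 Mice with transplanted tumors are dosed with compound while controls get vehicle only. Survival or tumor burden is then assessed per group, and the treated value is expressed relative to control.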

The mark [1] stands for this setting: dose: 200.0 mg/kg/injection, schedule: Q04DX004 (sc), vehicle: saline with Tween-80.
Where [2] appears, read: dose: 400.0 mg/kg/injection, schedule: Q04DX004 (sc), vehicle: saline with Tween-80.
Where [3] appears, read: dose: 800.0 mg/kg/injection, schedule: Q04DX004 (sc), vehicle: saline with Tween-80.
Setting [4] is: dose: 10.0 mg/kg/injection, schedule: Q04DX004 (sc), vehicle: water.
Where [5] appears, read: dose: 600.0 mg/kg/injection, schedule: Q04DX004 (sc), vehicle: saline with Tween-80.
[6] abbreviates: dose: 1200.0 mg/kg/injection, schedule: Q04DX004 (sc), vehicle: saline with Tween-80.

For `COc1cccc2c1C(=O)c1c(O)c3c(c(O)c1C2=O)C[C@@](O)(C(C)=O)C[C@@H]3OC1CC(N(Cc2ccccc2)Cc2ccccc2)C(O)C(C)O1` (some centres undefined), the T/C was 36 % of control (dose: 25.0 mg/kg/injection, schedule: Q01DX010 (sc), vehicle: water); 104 % of control and 212 % of control (dose: 31.25 mg/kg/injection, schedule: Q04DX004 (sc), vehicle: water); 97 % of control and 220 % of control (dose: 62.5 mg/kg/injection, schedule: Q04DX004 (sc), vehicle: water).

Turning to `CC(=O)NCCCCCCNC(C)=O`, the T/C is, setting by setting: (dose: 200.0 mg/kg/injection, schedule: Q01DX010 (sc), vehicle: saline) 88 % of control; (dose: 800.0 mg/kg/injection, schedule: Q01DX010 (sc), vehicle: saline) 95 % of control; (dose: 1600.0 mg/kg/injection, schedule: Q01DX010 (sc), vehicle: saline) 97 % of control and 117 % of control; (dose: 3200.0 mg/kg/injection, schedule: Q01DX010 (sc), vehicle: saline) 110 % of control.

As for `CNC(=O)OCc1c(COC(=O)NC)c(-c2ccc(Cl)c(Cl)c2)n2c1Cc1ccccc1C2`, the T/C by setting is: (dose: 300.0 mg/kg/injection, schedule: Q04DX004 (sc), vehicle: distilled water + Tween-80) 109 % of control; (dose: 600.0 mg/kg/injection, schedule: Q04DX004 (sc), vehicle: distilled water + Tween-80) 119 % of control; (dose: 1200.0 mg/kg/injection, schedule: Q04DX004 (sc), vehicle: distilled water + Tween-80) 61 % of control; (dose: 2400.0 mg/kg/injection, schedule: Q04DX004 (sc), vehicle: distilled water + Tween-80) 65 % of control.

Take `CN(C(=S)S(=O)(=O)C12CC3CC(CC(C3)C1)C2)c1ccccc1`: the T/C is, setting by setting: (dose: 12.5 mg/kg/injection, schedule: Q04DX004 (sc), vehicle: Klucel (hydroxypropylcellulose) (HPC)) 99 % of control; (dose: 25.0 mg/kg/injection, schedule: Q04DX004 (sc), vehicle: Klucel (hydroxypropylcellulose) (HPC)) 113 % of control; (dose: 400.0 mg/kg/injection, schedule: Q04DX004 (sc), vehicle: Klucel (hydroxypropylcellulose) (HPC)) 107 % of control and 123 % of control; (dose: 800.0 mg/kg/injection, schedule: Q04DX004 (sc), vehicle: Klucel (hydroxypropylcellulose) (HPC)) 197 % of control.

On to `Cc1ccc(N)c(N)c1`, for which the T/C under setting [1] is 151 % of control, the T/C under setting [2] was 85 % of control and the T/C under setting [3] is 124 % of control.

In the case of `N/C(=N\O)c1cn(C2OC(CO)C(O)C2O)c2ncnc(N)c12` (centres undefined), the T/C (dose: 5.0 mg/kg/injection, schedule: Q04DX004 (sc), vehicle: Klucel (hydroxypropylcellulose) (HPC)) was 67 % of control.

Turning to `Cc1c2ccncc2c(C)c2c1[nH]c1ccccc12`, the T/C was 70 % of control (dose: 12.5 mg/kg/injection, schedule: Q01DX010 (sc), vehicle: saline) and 47 % of control (dose: 25.0 mg/kg/injection, schedule: Q01DX010 (sc), vehicle: saline).

With `C[C@]12CC[C@@H]3c4ccc(OC(=O)Cc5ccc(N(CCCl)CCCl)cc5)cc4CC[C@H]3[C@@H]1CC[C@@H]2OC(=O)Cc1ccc(N(CCCl)CCCl)cc1`, the T/C under setting [1] is 106 % of control; the T/C under setting [2] is 70 % of control; the T/C under setting [3] was 113 % of control; the T/C (dose: 1600.0 mg/kg/injection, schedule: Q04DX004 (sc), vehicle: saline with Tween-80) is 111 % of control.

Take `NS(=O)(=O)OCCCCCCCOS(N)(=O)=O`: the T/C was 74 % of control (dose: 37.5 mg/kg/injection, schedule: Q04DX004 (ip), vehicle: saline with Tween-80); 102 % of control (dose: 75.0 mg/kg/injection, schedule: Q04DX004 (ip), vehicle: saline with Tween-80); 35 % of control (dose: 150.0 mg/kg/injection, schedule: Q04DX004 (ip), vehicle: saline with Tween-80).

Take `COC1C(O)CC(OC2CC(OC3CC(O[C@@H]4C(=O)c5c(cc6cc(OC7CC(OC8CC(O)C(O)C(C)O8)C(O)C(C)O7)c(C)c(O)c6c5O)C[C@H]4[C@H](OC)C(=O)[C@@H](O)[C@@H](C)O)OC(C)C3O)OC(C)C2O)OC1C` (some centres undefined): the T/C (dose: 0.75 mg/kg/injection, schedule: Q01DX010 (sc), vehicle: saline) was 27 % of control and 50 % of control; the T/C (dose: 1.5 mg/kg/injection, schedule: Q01DX010 (sc), vehicle: saline) is 29 % of control and 41 % of control.

On to `O/N=C/c1ccccc1O.O/N=C/c1ccccc1O.[Cu]`, for which the T/C is, setting by setting: (dose: 25.0 mg/kg/injection, schedule: Q04DX004 (sc), vehicle: saline with Tween-80) 76 % of control; (dose: 50.0 mg/kg/injection, schedule: Q04DX004 (sc), vehicle: saline with Tween-80) 39 % of control; (dose: 100.0 mg/kg/injection, schedule: Q04DX004 (sc), vehicle: saline with Tween-80) 43 % of control; under setting [1], 61 % of control.

As to `COc1cccc2c1C(=O)c1c(O)c3c(c(O)c1C2=O)C[C@@](O)(/C(C)=N/NC(=O)c1cccc([N+](=O)[O-])c1)C[C@@H]3OC1CC(N)C(O)C(C)O1` (some centres undefined), the T/C (dose: 8.0 mg/kg/injection, schedule: Q01DX010 (sc), vehicle: water) is 16 % of control; the T/C under setting [4] is 48 % of control; the T/C (dose: 16.0 mg/kg/injection, schedule: Q01DX010 (sc), vehicle: water) was 61 % of control; the T/C (dose: 20.0 mg/kg/injection, schedule: Q04DX004 (sc), vehicle: water) was 70 % of control; the T/C (dose: 40.0 mg/kg/injection, schedule: Q04DX004 (sc), vehicle: water) is 47 % of control; the T/C (dose: 80.0 mg/kg/injection, schedule: Q04DX004 (sc), vehicle: water) was 106 % of control.

Turning to `O=S(=O)(O)O`, the T/C was 86 % of control (dose: 75.0 mg/kg/injection, schedule: Q04DX004 (sc), vehicle: Klucel (hydroxypropylcellulose) (HPC)); 116 % of control (dose: 150.0 mg/kg/injection, schedule: Q04DX004 (sc), vehicle: Klucel (hydroxypropylcellulose) (HPC)); 65 % of control (dose: 300.0 mg/kg/injection, schedule: Q04DX004 (sc), vehicle: Klucel (hydroxypropylcellulose) (HPC)).

On to `C#C[C@]1(O)CC[C@H]2[C@@H]3CCc4cc(O)ccc4[C@H]3CC[C@@]21C`, for which the T/C (dose: 600.0 mg/kg/injection, schedule: Q04DX004 (sc), vehicle: Klucel (hydroxypropylcellulose) (HPC)) was 91 % of control; the T/C (dose: 1200.0 mg/kg/injection, schedule: Q04DX004 (sc), vehicle: Klucel (hydroxypropylcellulose) (HPC)) is 83 % of control; the T/C (dose: 2400.0 mg/kg/injection, schedule: Q04DX004 (sc), vehicle: Klucel (hydroxypropylcellulose) (HPC)) is 80 % of control.

As to `CCSC(=O)N1c2ccc(OC)cc2C=CC1C#N` (centres undefined), the T/C under setting [5] was 93 % of control; the T/C under setting [6] is 84 % of control; the T/C (dose: 2400.0 mg/kg/injection, schedule: Q04DX004 (sc), vehicle: saline with Tween-80) was 53 % of control.

`COc1cccc2c1C(=O)c1c(O)c3c(c(O)c1C2=O)C[C@@](O)(C(C)=O)C[C@@H]3OC1CC(N(C)C)C(O)C(C)O1` (some centres undefined): the T/C reads like this: (dose: 2.5 mg/kg/injection, schedule: Q04DX004 (sc), vehicle: water) 69 % of control; (dose: 4.0 mg/kg/injection, schedule: Q01DX010 (sc), vehicle: saline) 54 % of control; (dose: 5.0 mg/kg/injection, schedule: Q04DX004 (sc), vehicle: water) 45 % of control; under setting [4], 97 % of control.

As to `CC(=O)OCC1OC(n2cc(CBr)nn2)C(OC(C)=O)C(OC(C)=O)C1OC(C)=O` (centres undefined), the T/C (dose: 200.0 mg/kg/injection, schedule: Q01DX010 (sc), vehicle: saline with Tween-80) is 79 % of control; the T/C (dose: 400.0 mg/kg/injection, schedule: Q01DX010 (sc), vehicle: saline with Tween-80) was 97 % of control; the T/C (dose: 800.0 mg/kg/injection, schedule: Q01DX010 (sc), vehicle: saline with Tween-80) is 70 % of control.

Turning to `COc1cc(C(=O)N/N=C/c2cccc([N+](=O)[O-])c2)cc(OC)c1OC`, the T/C is 91 % of control (dose: 150.0 mg/kg/injection, schedule: Q04DX004 (sc), vehicle: saline with Tween-80); 70 % of control under setting [5]; 120 % of control under setting [6].

These data come from PubChem BioAssay AID206 (DTP/NCI, 2004).
